Reference: article PMC9354954, “Assessing Bioavailability and Bioactivity of 4-Hydroxythiazolidine-2-Thiones, Newly Discovered Glucosinolate Degradation Products Formed During Domestic Boiling of Cabbage” (Frontiers in Nutrition, 2022)

Tests used:
Caco-2 cells = assay: Cytotoxicity, MTT assay; type: cell-based, human; settings: Caco-2, MTT assay, up to 100 μM, 24 h
Protocol: (§1) To determine the cytotoxicity of allyl HTT and 4-MSOB HTT, HepG2 and Caco-2 cells were seeded in a 96-well TC-plate (standard F, sterile, from Sarsted, Nümbrecht, Germany) using a seeding density of 20,000 cells/well. After 24 h, the medium was exchanged to 200 μL pure medium or 200 μL medium containing allyl HTT or 4-MSOB HTT with concentrations in the range of 0.1–100 μM. The cells were treated for 24 h under cell culture conditions (prepared for three biological replicates, every 3 technical replicates). Cell viability was determined using the MTT assay and the neutral red uptake assay based on Schröter et al. ([27]). In the case of MTT assay, after 24 h of HTT treatment, 20 μL of MTT solution (75 mg MTT in 15 mL PBS) were added, and cells were incubated for 60 min under cell culture conditions. Afterward, the supernatant was removed and 100 μL of lysis buffer (5% formic acid in isopropanol) was added and the plate was shaken for 10 min at 300 rpm before measuring the absorption at 550 ± 5 nm (reference 690 ± 5 nm) by a Tecan i-control Infinite M200 PRO plate reader (Crailsheim, Germany). In the case of the neutral red uptake assay, the supernatant was removed after 24 h HTT treatment, and 100 μL neutral red solution (40 mg neutral red in 10 mL PBS, freshly diluted 1:100 with medium and incubated for 24 h under cell culture conditions) was added. After incubation of neutral red solution for 2 h under cell culture conditions, the supernatant was removed, and cells were washed with 150 μL of PBS. After removing PBS, 150 μL desorb solution (49.5% water/49.5% ethanol/1% acetic acid) was added and the plate was shaken for 10 min at 300 rpm before measuring the absorption at 540 ± 5 nm by Tecan i-control Infinite M200 PRO plate reader. The mean ± SD is used for presenting the results of three technical replicates for each data point of the three biological replicates.

HepG2 cells = assay: Cytotoxicity, MTT assay; type: cell-based, human; settings: up to 100 μM, 24 h
Protocol: as §1

[1] = biological target: T1, glycogen synthase kinases-3α (Homo sapiens, UniProt P49840); assay: GSK-3 inhibition, Z'-LYTE kinase assay; type: biochemical
T1 construct: purchased Life Technologies/Thermo Fisher Scientific, SelectScreen Services (Madison, WI, USA)
T1 sequence (P49840 whole entry): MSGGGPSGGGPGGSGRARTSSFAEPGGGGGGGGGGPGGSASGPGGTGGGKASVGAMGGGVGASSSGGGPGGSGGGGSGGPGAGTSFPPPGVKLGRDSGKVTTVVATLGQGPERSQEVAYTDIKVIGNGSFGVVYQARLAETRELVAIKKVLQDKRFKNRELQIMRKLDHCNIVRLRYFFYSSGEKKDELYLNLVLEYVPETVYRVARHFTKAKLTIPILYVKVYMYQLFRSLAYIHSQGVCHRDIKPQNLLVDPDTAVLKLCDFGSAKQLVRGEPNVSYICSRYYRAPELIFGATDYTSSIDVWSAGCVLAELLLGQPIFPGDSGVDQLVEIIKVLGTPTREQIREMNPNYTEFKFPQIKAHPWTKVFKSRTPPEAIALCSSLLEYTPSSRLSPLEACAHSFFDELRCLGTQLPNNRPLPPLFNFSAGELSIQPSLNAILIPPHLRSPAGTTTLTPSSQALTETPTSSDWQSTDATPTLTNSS
Protocol: (§2) The determination of the inhibition of glycogen synthase kinases-3α and -3β by allyl HTT and 4-MSOB HTT was performed via contract research with Life Technologies/Thermo Fisher Scientific by sending the compounds dissolved in 100% DMSO to SelectScreen Services (Madison, WI, USA). The tested concentrations in the Z'-LYTE assay were up to 100 μM and standards were prepared as duplicates. The Z'-LYTE kinase assay is a fluorescence-based assay using a coupled-enzyme format and the different sensitivity of phosphorylated and non-phosphorylated peptides regarding their fluorescence. The data are shown as mean ± SD. Due to the impression of significant bioactivity, further comparisons were performed. […] Stars report different significance levels: ^*p ≤ 0.05, ^**p ≤ 0.01, and ^***p ≤ 0.001.

[2] = Estimation of permeability coefficients from plot of Levin data using measured partition coefficients; settings: for Papp: not told, estimated from plot of Levin data (ref 32) using measured octanol/water partition coefficients, read-out: estimated permeability coefficient
Text: The log P-value is positive for compounds which are better soluble in the octanol phase, and is negative for compounds which are better soluble in the aqueous phase. To assess if the different uptake behavior of the two HTTs is based on their different polarity, the octanol/water partition coefficients of several compounds were plotted against their permeability coefficients, based on a previous report by Levin ([32]) (Supplementary Figure S5). The obtained plot was used to estimate the permeability coefficients of the two HTTs with 2 × 10^−4 cm/s for allyl HTT and 1.1 × 10^−5 cm/s for 4-MSOB HTT using the measured octanol/water partition coefficients of both compounds. The ratio of both estimated permeability coefficients was 18 and fitted very well to the measured ratios of 27-fold and 10-fold for the higher uptake of allyl HTT compared to 4-MSOB HTT in the experiments with HepG2 and Caco-2 cells. Therefore, the uptake of allyl HTT and 4-MSOB HTT in the in vitro assays can be primarily explained by simple passive diffusion through the cell membrane. Additionally, the fact that in both intestinal model experiments (transport of the analyte from the upper to the lower compartment, as well as from the lower to an upper compartment), the transport velocity was similar, and an equilibrium concentration between both compartments was reached, supporting the hypothesis of passive diffusion without the need of special transporters.
Figure S5: Plot of data reported by Levin (1980) to describe the correlation between the octanol/water partition coefficients of several compounds and their permeability coefficients. The red line and thin black lines were draw by the author and used to estimate the permeability coefficients of 3-allyl-4-hydroxythiazolidine-2-thione (allyl HTT) and 4-hydroxy-3-(4-(methylsulfinyl)butyl) thiazolidine-2-thione (4-MSOB HTT) using their measured octanol-water partition coefficients (black lines).

[3] = biological target: T2, glycogen synthase kinases-3β (Homo sapiens, UniProt P49841); assay: GSK-3 inhibition, Z'-LYTE kinase assay; type: biochemical
T2 construct: purchased Life Technologies/Thermo Fisher Scientific, SelectScreen Services (Madison, WI, USA)
T2 sequence (P49841 whole entry): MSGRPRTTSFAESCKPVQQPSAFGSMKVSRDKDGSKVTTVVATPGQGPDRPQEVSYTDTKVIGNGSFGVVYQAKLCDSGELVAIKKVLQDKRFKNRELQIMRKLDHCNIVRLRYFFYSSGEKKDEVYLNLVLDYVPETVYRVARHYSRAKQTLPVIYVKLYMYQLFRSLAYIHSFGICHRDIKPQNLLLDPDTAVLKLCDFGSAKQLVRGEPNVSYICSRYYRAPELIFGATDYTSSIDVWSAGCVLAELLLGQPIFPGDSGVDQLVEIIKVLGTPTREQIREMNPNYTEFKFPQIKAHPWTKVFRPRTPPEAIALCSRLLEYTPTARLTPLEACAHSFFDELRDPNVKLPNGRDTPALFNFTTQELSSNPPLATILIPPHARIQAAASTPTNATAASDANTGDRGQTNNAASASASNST
Protocol: as §2

Row | SMILES | effect on cell viability compared to untreated cells (Caco-2 cells) | effect on cell viability compared to untreated cells (HepG2 cells) | inhibition at 100 µM [1] [%] | Papp [2] [×10⁻⁶ cm/s] | inhibition at 100 µM [3] [%] | ratio of both estimated permeability coefficients ([2]; allyl HTT vs 4-MSOB HTT)
1 | C[S+]([O-])CCCCN1C(=S)SCC1O (stereo not drawn) [4-MSOB HTT, 4-hydroxy-3-(4-(methylsulfinyl)butyl)thiazolidine-2-thione] | did not show any effect on cell viability | did not show any effect on cell viability | ~29 | 11 | – | –
2 | C=CCN1C(=S)SCC1O (stereo not drawn) [allyl HTT, 3-allyl-4-hydroxythiazolidine-2-thione] | did not show any effect on cell viability | did not show any effect on cell viability | – | 200 | ~20 | 18
